Laboratory results from patent publication US11214803B2, “Modulators of YAP1 expression” (Ionis Pharmaceuticals, Inc., priority 2019, dated 2022).
Strand notation (5' to 3'): a small letter for the sugar, then the base; units joined by * are phosphorothioate-linked, units joined directly phosphodiester-linked; [ ] holds rarer units or linkages, { } end groups; capitals alone tell only the bases. e = 2'-O-(2-methoxyethyl) (MOE); k = constrained ethyl (cEt); [5mC] = 5-methylcytosine; d = 2'-deoxy (DNA); m = 2'-O-methyl

system: Yap1 mRNA; test: Antisense inhibition of human Yap1 in SNU-449 cells by modified oligonucleotides, single dose (Example 5, RTS36584); format: cell-based; settings: Table 39; SNU-449 cells, 10,000 cells per well, free uptake, 2,000 nM oligonucleotide, approx. 48 hours; RTS36584; normalized to RIBOGREEN; Yap1 mRNA relative to untreated control
Outline: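 Each modified oligonucleotide is applied by free uptake to SNU-449 cultures at 2,000 nM, and total RNA is harvested around 48 h later. Yap1 transcript, quantified with the RTS36584 set and corrected for RIBOGREEN RNA content, is given as % UTC. Asterisks mark sequences overlapping the amplicon.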

| Substance | YAP1 (% UTC) |
| --- | --- |
| 1198374 (kG*dA*dA*dA*dT*dT*dG*dT*d[5mC]*dT*d[5mC]*kA*eT*kG*e[5mC]*k[5mC]; antisense) [Compound 1198374] | 24 |
| 1198377 (kA*dT*dG*dG*dA*dA*dA*dT*dT*dG*dT*k[5mC]*eT*k[5mC]*eA*kT; antisense) [Compound 1198377] | 30 |
| 1198447 (kT*dA*dA*dG*dG*dT*dT*dT*d[5mC]*d[5mC]*d[5mC]*kA*eG*kA*eT*kT; antisense) [Compound 1198447] | 63 |
| 1198391 (kG*dA*dG*dG*dT*dA*dT*dA*dA*d[5mC]*dT*kG*eG*kG*e[5mC]*kA) [Compound 1198391] | 29 |

same assay, conditions: Table 40 (separate experiment); SNU-449 cells, 10,000 cells per well, free uptake, 2,000 nM oligonucleotide, approx. 48 hours; RTS36584; normalized to RIBOGREEN; Yap1 mRNA relative to untreated control

| Substance | YAP1 (% UTC) |
| --- | --- |
| 1198443 (kT*dT*dA*dA*dA*dG*dT*dG*dT*dA*dT*kG*eT*k[5mC]*eA*kG; antisense) [Compound 1198443] | 39 |

same assay, conditions: Table 41; SNU-449 cells, 10,000 cells per well, free uptake, 2,000 nM modified oligonucleotide, approximately 48 hours; RTS36584; normalized to RIBOGREEN; Yap1 mRNA relative to untreated control cells

| Substance | YAP1 (% UTC) |
| --- | --- |
| 1198692 (antisense kT*kG*dT*dA*dA*dT*dA*dT*dT*dG*d[5mC]*dA*kA*eT*k[5mC]*eT) [Compound 1198692] | 120 |
| 1198637 (kA*kG*dT*dA*dT*dG*dT*dG*dG*d[5mC]*dA*dA*kT*eA*kA*eT; antisense) [Compound 1198637] | 64 |
| 1198772 (k[5mC]*eT*k[5mC]*dT*dT*dA*dT*dA*dT*dG*dG*dT*eT*eT*kT*kG; antisense) [Compound 1198772] | 41 |
| 1198639 (kT*kA*dG*dA*dG*dT*dA*dT*dG*dT*dG*dG*k[5mC]*eA*kA*eT; antisense) [Compound 1198639] | 32 |

same assay, conditions: Table 42 (separate experiment); SNU-449 cells, 10,000 cells per well, free uptake, 2,000 nM modified oligonucleotide, approximately 48 hours; RTS36584; normalized to RIBOGREEN; Yap1 mRNA relative to untreated control cells

| Substance | YAP1 (% UTC) |
| --- | --- |
| 1198239 (kA*kG*dG*dA*dT*dG*d[5mC]*dA*dT*dG*dG*eT*eT*eT*kT*kT) [Compound 1198239] | 39 |

same assay, conditions: Table 43 experiment; SNU-449 cells, 10,000 cells per well, free uptake, 2,000 nM, approximately 48 hours; RTS36584; Yap1 mRNA normalized to RIBOGREEN, relative to untreated control cells

| Substance | YAP1 (% UTC) |
| --- | --- |
| 1095594 (antisense k[5mC]*kT*dG*dA*dG*dG*dT*dA*dT*dA*dA*e[5mC]*eT*eG*kG*kG) [Compound 1095594] | 27 |
| 1198248 (kA*kT*dA*dT*dG*dG*dT*dT*dT*dT*dG*eT*eG*eT*kG*kT; antisense) [Compound 1198248] | 64 |

same assay, conditions: Table 44 experiment; SNU-449 cells, 10,000 cells per well, free uptake, 2,000 nM, approximately 48 hours; RTS36584; Yap1 mRNA normalized to RIBOGREEN, relative to untreated control cells

| Substance | YAP1 (% UTC) |
| --- | --- |
| 1198487 (antisense kT*kT*dA*dA*dG*d[5mC]*dA*d[5mC]*dT*dT*dT*eT*kA*e[5mC]*kA*eT) [Compound 1198487] | 62 |
| 1198530 (kT*kT*dT*dA*dA*dA*dG*dT*dG*dT*dA*eT*kG*eT*k[5mC]*eA; antisense) [Compound 1198530] | 29 |
| 1198514 (kG*kA*d[5mC]*dA*dA*d[5mC]*dT*d[5mC]*dT*dT*dA*eT*kA*eT*kG*eG; antisense) [Compound 1198514] | 53 |
| 1198518 (kT*kA*dA*dT*dA*dT*dT*dG*d[5mC]*dA*dA*eT*k[5mC]*eT*kG*eT; antisense) [Compound 1198518] | 71 |
| 1198528 (kT*kA*dA*dA*dG*dT*dG*dT*dA*dT*dG*eT*k[5mC]*eA*kG*eA; antisense) [Compound 1198528] | 14 |

same assay, conditions: Table 45; Yap1 mRNA as percent of untreated control, SNU-449 cells, single dose

| Substance | YAP1 (% UTC) |
| --- | --- |
| 1198922 (kG*kG*dA*dA*dG*dA*dT*d[5mC]*dT*dG*dA*kA*dA*k[5mC]*dT*k[5mC]; antisense) [Compound 1198922] | 59 |

same assay, conditions: Table 46; Yap1 mRNA as percent of untreated control, SNU-449 cells, single dose

| Substance | YAP1 (% UT) |
| --- | --- |
| 1198840 (kG*k[5mC]*dT*dT*dT*dG*dG*dA*dA*dG*dA*kT*e[5mC]*kT*eG*kA; antisense) [Compound 1198840] | 26 |
| 1198815 (antisense kT*kA*dG*dA*dG*dT*dA*dT*dG*dT*dG*kG*e[5mC]*kA*eA*kT) [Compound 1198815] | 24 |
| 1198844 (kA*kT*dA*dG*dT*dG*d[5mC]*dT*dT*dT*dG*kG*eA*kA*eG*kA; antisense) [Compound 1198844] | 56 |
| 1198871 (kT*kT*dT*dA*dT*dG*dT*dA*dA*dT*dA*kT*eT*kG*e[5mC]*kA; antisense) [Compound 1198871] | 77 |

same assay, conditions: Table 48; Yap1 mRNA level relative to untreated control; modified oligonucleotides targeting SEQ ID NO.: 1 and 2

| Substance | YAP1 (% UT) |
| --- | --- |
| 1197217 (antisense kT*kT*kA*dA*dA*dG*dT*dG*dT*dA*dT*dG*dT*k[5mC]*kA*kG) [Compound 1197217] | 8 |
| 1198317 (kT*kT*kG*dG*dA*dA*dG*dA*dT*d[5mC]*dT*dG*kA*eA*kA*e[5mC]; antisense) [Compound 1198317] | 74 |
| 1198286 (kA*kA*kT*dT*dG*dT*d[5mC]*dT*d[5mC]*dA*dT*dG*k[5mC]*e[5mC]*kT*eT; antisense) [Compound 1198286] | 17 |
| 1198296 (kT*kT*kA*dG*dA*dG*dT*dA*dT*dG*dT*dG*kG*e[5mC]*kA*eA; antisense) [Compound 1198296] | 29 |
| 1198311 (k[5mC]*kA*k[5mC]*dT*dT*dT*dT*dA*d[5mC]*dA*dT*dT*kA*eG*kG*eA; antisense) [Compound 1198311] | 39 |

same assay, conditions: Table 49; Yap1 mRNA level relative to untreated control; modified oligonucleotides targeting SEQ ID NO.: 1 and 2

| Substance | YAP1 (% UT) |
| --- | --- |
| 1198334 (kA*kT*kA*dT*dG*dG*dT*dT*dT*dT*dG*dT*kG*eT*kG*eT; antisense) [Compound 1198334] | 57 |
| 1198354 (kA*kA*kG*dT*dG*dT*dA*dT*dG*dT*d[5mC]*dA*kG*eA*kA*eG; antisense) [Compound 1198354] | 6 |
| 1095565 (antisense kT*kG*kA*dG*dG*dT*dA*dT*dA*dA*d[5mC]*dT*kG*eG*kG*e[5mC]) [Compound 1095565] | 25 |
| 1198366 (kA*k[5mC]*kT*dA*dA*dG*dT*dA*dA*dG*dG*dT*kT*eT*k[5mC]*e[5mC]; antisense) [Compound 1198366] | 45 |
| 1198369 (kT*kT*kA*dG*dA*d[5mC]*dT*dA*dA*dG*dT*dA*kA*eG*kG*eT; antisense) [Compound 1198369] | 51 |
| 1198565 (antisense kT*kT*kA*d[5mC]*dA*dT*dT*dA*dG*dG*dA*dA*k[5mC]*kA*kA*eG) [Compound 1198565] | 53 |

same assay, conditions: Table 50; Yap1 mRNA remaining as percent of untreated control (UT), SNU-449 cells, single dose

| Substance | YAP1 (% UT) |
| --- | --- |
| 1198593 (antisense kT*kT*kA*dT*dA*dT*dG*dG*dT*dT*dT*dT*kG*kT*kG*eT) [Compound 1198593] | 45 |

same assay, conditions: Table 51; Yap1 mRNA remaining as percent of untreated control (UT), SNU-449 cells, single dose

| Substance | YAP1 (% UT) |
| --- | --- |
| 1197289 (kG*kG*kT*dA*mU*dA*dA*d[5mC]*dT*dG*dG*dG*d[5mC]*kA*kA*kA) [Compound 1197289] | 48 |
| 1197250 (antisense kT*kT*kG*dG*mA*dA*dG*dA*dT*d[5mC]*dT*dG*dA*kA*kA*k[5mC]) [Compound 1197250] | 60 |
| 1197242 (antisense k[5mC]*kA*k[5mC]*dT*mG*dA*dG*dG*dT*dA*dT*dA*dA*k[5mC]*kT*kG) [Compound 1197242] | 46 |
| 1197252 (antisense k[5mC]*kT*kT*dT*mG*dG*dA*dA*dG*dA*dT*d[5mC]*dT*kG*kA*kA) [Compound 1197252] | 53 |
| 1197296 (kT*kG*k[5mC]*dT*mU*dT*dG*dG*dA*dA*dG*dA*dT*k[5mC]*kT*kG) [Compound 1197296] | 36 |

same assay, conditions: Table 52; Yap1 mRNA, modified oligonucleotides targeting SEQ ID NO: 1 and 2

| Substance | YAP1 (% UT) |
| --- | --- |
| 1200865 (kT*kA*kA*dG*dG*mU*dT*dT*d[5mC]*d[5mC]*d[5mC]*dA*dG*kA*kT*kT; antisense) [Compound 1200865] | 54 |
| 1200854 (kT*kA*kT*dG*dT*mA*dA*dT*dA*dT*dT*dG*d[5mC]*kA*kA*kT; antisense) [Compound 1200854] | 91 |
| 1200829 (kA*kG*kG*dA*dT*mG*d[5mC]*dA*dT*dG*dG*dT*dT*kT*kT*kT; antisense) [Compound 1200829] | 49 |
| 1200870 (kA*k[5mC]*kT*dA*dA*mG*dT*dA*dA*dG*dG*dT*dT*kT*k[5mC]*k[5mC]; antisense) [Compound 1200870] | 73 |

same assay, conditions: Yap1 mRNA, percent of untreated control; modified oligonucleotides targeting SEQ ID NO: 1 and 2; Table 47

| Substance | YAP1 (% UT) |
| --- | --- |
| 1197206 (antisense kA*kT*kA*dT*dT*dG*d[5mC]*dA*dA*dT*d[5mC]*dT*dG*kT*k[5mC]*kT) [Compound 1197206] | 63 |
| 1198873 (kA*kG*dT*dG*dT*dA*dT*dG*dT*d[5mC]*dA*kG*eA*kA*eG*kA; antisense) [Compound 1198873] | 4 |
| 1197182 (antisense kT*kT*kT*dT*dA*d[5mC]*dA*dT*dT*dA*dG*dG*dA*kA*k[5mC]*kA) [Compound 1197182] | 115 |
| 1074462 (kG*kG*kA*dA*dA*dT*dT*dG*dT*d[5mC]*dT*d[5mC]*dA*kT*kG*k[5mC]; antisense) [Compound 1074462] | 7 |
| 1198877 (kT*kT*dA*dA*dA*dG*dT*dG*dT*dA*dT*kG*eT*k[5mC]*eA*kG; antisense) [Compound 1198877] | 11 |
| 1198859 (kA*k[5mC]*dT*d[5mC]*dT*dT*dA*dT*dA*dT*dG*kG*eT*kT*eT*kT; antisense) [Compound 1198859] | 33 |
